Reference: patent US5985909A, “Cyclopropylindoles and their seco precursors, and their use as prodrugs” (Cancer Research Campaign Technology Limited, priority 1995, dated 1999)
pIC50: −log10 of the molar value.

Assays:
human tumours = settings: background statement; cited from earlier work
UV4 cells [1] = test: Growth inhibition (cytotoxicity) in UV4 cells, 18 h drug exposure, methylene blue staining; format: cell-based, Chinese hamster; settings: Cricetulus griseus, 18 h exposure then 78 h growth (Example 9), read-out: IC50 against UV4 cells
Description: The compounds of Examples 1 and 3 show potent cytotoxicity to mammalian tumour cells, and are thus of interest as anticancer drugs. […] For these evaluations, AA8 and UV4 cells were maintained in exponential phase growth (doubling times 14 and 15 h respectively) using Alpha MEM containing fetal calf serum (10% v/v) without antibiotics, and were subcultured twice weekly by trypsinization. Bulk cultures were prepared for experiments by seeding cells in spinner flasks at 10^4 cells/mL in the above medium with addition of penicillin (100 IU/mL) and streptomycin (100 μg/mL). Cultures were initiated in 96-well microtiter trays to give 200 (AA8) or 300 (UV4) cells in 0.05 mL per well. After growth in a CO2 incubator for 24 h, drugs were added in culture medium, using serial two-fold dilutions to provide duplicate cultures at five different concentrations for each of eight drugs (plus eight controls) per tray. After 18 h drugs were removed by washing cultures three times with fresh medium, and the trays were incubated for a further 78 h. Cell density was then determined by staining with methylene blue as described [Finlay, G. J.; Baguley, B. C; Wilson, W. R. Anal. Biochem., 1984, 139, 272-277]. The IC50 was calculated as the drug concentration providing 50% inhibition of growth relative to the controls. […]

AA8 cells = test: Growth inhibition (cytotoxicity) in AA8 cells, 18 h drug exposure, methylene blue staining; format: cell-based, Chinese hamster; settings: Cricetulus griseus, CHO-AA8, 18 h exposure then 78 h growth, 50% inhibition of growth relative to controls
Description: (§1) The compounds of Examples 1 and 3 show potent cytotoxicity to mammalian tumour cells, and are thus of interest as anticancer drugs. […] For these evaluations, AA8 and UV4 cells were maintained in exponential phase growth (doubling times 14 and 15 h respectively) using Alpha MEM containing fetal calf serum (10% v/v) without antibiotics, and were subcultured twice weekly by trypsinization. Bulk cultures were prepared for experiments by seeding cells in spinner flasks at 10^4 cells/mL in the above medium with addition of penicillin (100 IU/mL) and streptomycin (100 μg/mL). Cultures were initiated in 96-well microtiter trays to give 200 (AA8) or 300 (UV4) cells in 0.05 mL per well. After growth in a CO2 incubator for 24 h, drugs were added in culture medium, using serial two-fold dilutions to provide duplicate cultures at five different concentrations for each of eight drugs (plus eight controls) per tray. After 18 h drugs were removed by washing cultures three times with fresh medium, and the trays were incubated for a further 78 h. Cell density was then determined by staining with methylene blue as described [Finlay, G. J.; Baguley, B. C; Wilson, W. R. Anal. Biochem., 1984, 139, 272-277]. The IC50 was calculated as the drug concentration providing 50% inhibition of growth relative to the controls.

[2] = background statement, test system not given; cited from earlier work
UV4 cells [3] = test: Activation of prodrug by E. coli nitroreductase: IC50 in UV4 cells without and with purified enzyme and NADH; format: cell-based, Chinese hamster; settings: for pIC50: 18 hours; for fold activation by the enzyme: ratio of IC50 without to IC50 with E. coli nitroreductase, 1080 min
Description: as §1
The compound was incubated with UV4 cells for 18 hours in 96-well plates under aerobic conditions. The UV4 cell line is a mutant Chinese hamster ovary fibroblast lines derived from the wild-type AA8. It is a UV complementation group 1 mutant, with a defect in the incision step of excision repair [Thompson, L. H. et al Proc. Natl. Acad. Sci (USA), 1980, 78, 3734; Thompson, L. H.; Carrono, A. V. In Cellular responses to DNA Damage, UCLA Symposium on Molecular and Cellular Biology, New Series, Vol. 11 (Freidberg, E. C.; Bridges, B. R.; Eds), Alan R. Liss: New York, 1983: p 125], and is highly sensitive to agents which form bulky DNA monoadducts or crosslinks [Hoy, C.A . et al Cancer Res., 1985, 45, 1737-1747].
The experiment was repeated but in addition purified E. coli nitroreductase enzyme (1 μg/mL) and NADH (1 mM, as cofactor) was added during the entire time of the incubation. […] This represents a 26-fold activation by the enzyme.

In the case of `CCN(CC)c1ccc2cc(C(=O)Nc3ccc4[nH]c(C(=O)N5C[C@@H](CCl)c6c5cc(OC(=O)Nc5ccccc5)c5[nH]cc(C)c65)cc4c3)oc2c1` [carzelesin], the “anticancer activity against a range of human tumours” value (human tumours) is listed as “show anticancer activity against a range of human tumours”.

Work on `COc1cc2cc(C(=O)N3CC(CCl)c4ccc(N)cc43)[nH]c2c(OC)c1OC` (stereo not shown) [Example 1, 6-Amino-3-(chloromethyl)-1-[(5',6',7'-trimethoxyindol-2'-yl)carbonyl]indoline] yielded a pIC50 (UV4 cells [1]) of 7.23 and a pIC50 (AA8 cells) of 6.49.

For `COc1c(O)c2c(c3cc(C(=O)N4CCc5c4c(O)c(OC)c4[nH]c(C(=O)N6CC7CC78C6=CC(=O)c6[nH]cc(C)c68)cc54)[nH]c13)CCN2C(N)=O` (stereo not shown) [CC-1065], the IC50 [2] is given as “low pM range”.

For `COC(=O)c1c(C)[nH]c2c(OC(=O)N3CCN(C)CC3)cc3c(c12)[C@H](CBr)CN3C(=O)c1cc2cc(OC)c(OC)c(OC)c2[nH]1` [KW-2189], the “anticancer activity against a range of human tumours” value (human tumours) is given as “show anticancer activity against a range of human tumours”.

In the case of `COc1cc2cc(C(=O)N3CC(CCl)c4ccc([N+](=O)[O-])cc43)[nH]c2c(OC)c1OC` (stereo not shown) [example 1(h), 3-(Chloromethyl)-6-nitro-1-[(5',6',7'-trimethoxyindol-2'-yl)carbonyl]indoline], the pIC50 (UV4 cells [3]; aerobic conditions, no enzyme (Example 10), read-out: IC50 in UV4 cells in the absence of E. coli nitroreductase) was 5.63, the pIC50 (UV4 cells [3]; aerobic, purified E. coli nitroreductase 1 μg/mL and NADH 1 mM during the entire incubation, read-out: IC50 in UV4 cells in the presence of E. coli nitroreductase) was 8.22 and the “fold activation by the enzyme” value (UV4 cells [3]) was 400 fold.

Compound `COc1cc2cc(C(=O)N3CC(CCl)c4ccc(NC(=O)OCc5ccc([N+](=O)[O-])cc5)cc43)[nH]c2c(OC)c1OC` (stereo not shown) [Example 3, 3-(Chloromethyl)-6-[(4"-nitrobenzyloxycarbonyl)amino]-1-[(5',6',7'-trimethoxyindol-2'-yl)carbonyl]indoline] has a pIC50 (UV4 cells [1]) of 4.71, a pIC50 (AA8 cells) of 4.64 and a pIC50 (UV4 cells [3]; Cricetulus griseus, aerobic conditions, no enzyme (Example 10), read-out: IC50 in UV4 cells in the absence of E. coli nitroreductase) of 4.92. For the same compound, the pIC50 (UV4 cells [3]; Cricetulus griseus, aerobic, purified E. coli nitroreductase 1 μg/mL and NADH 1 mM during the entire incubation, read-out: IC50 in UV4 cells in the presence of E. coli nitroreductase) was 6.34 and the “fold activation by the enzyme” value (UV4 cells [3]) was 26 fold.
